Series [1] relates to HepG2/C3A. Description: Cell protein and monolayer morphology of HepG2/C3A cultures. Format: cell-based, human. As to conditions: 48 hours. The procedure: (§1) (R)-2-(9-(1H-1,2,4-triazol-1-yl)nonyl)-2,5,7,8-tetramethylchroman-6-ol and γ-tocopherol stock solutions were prepared in ethanol. Confluent cultures of the human heptoblastoma cell line, HepG2/C3A, were pre-incubated with varying concentrations of (R)-2-(9-(1H-1,2,4-triazol-1-yl)nonyl)-2,5,7,8-tetramethylchroman-6-ol or ethanol for 4 hours, followed by addition of 25 μM γ-tocopherol. After 48 hours, culture media was collected and analyzed for ω-oxidation products of γ-tocopherol (the 3′- and 5′-carboxychromanols) by GC-MS, using d9-3′-carboxyethylchromanol as internal standard (Sontag T J et al. (2002) J Biol Chem 277: 25290-25296).
There was no effect of (R)-2-(9-(1H-1,2,4-triazol-1-yl)nonyl)-2,5,7,8-tetramethylchroman-6-ol on cell protein and all monolayers appeared normal in morphology.

Series [2] deals with tocopherol hydroxylase. Description: Tissue enrichment in δ-tocopherol in mice in vivo (diet feeding, GC-MS). As to conditions: 10 days. The procedure:
Two groups of mice (n=3) were fed a chow diet enriched with δ-tocopherol (6000 mg per kg diet), with or without 500 mg per kg (R)-2-(9-(1H-1,2,4-triazol-1-yl)nonyl)-2,5,7,8-tetramethylchroman-6-ol. After 10 days on diet, mice were fasted for 5 hrs, euthanized, and tocopherol concentrations determined in plasma, liver and bile, using GC-MS procedures and d9-3′-carboxyethylchromanol as internal standard (Sontag T J et al.).
Therefore data shown in FIG. 2 are presented as the δ-tocopherol/α-tocopherol ratio, where an increase in the ratio reflects enrichment in δ-tocopherol relative to α-tocopherol.

Series [3] has as its target T1, tocopherol hydroxylase activity in HepG2/C3A cultures (Homo sapiens, UniProt P78329).
T1 construct: Confluent cultures of the human heptoblastoma cell line, HepG2/C3A; endogenous in cells; host or cells: HepG2/C3A
T1 sequence (P78329 5-520): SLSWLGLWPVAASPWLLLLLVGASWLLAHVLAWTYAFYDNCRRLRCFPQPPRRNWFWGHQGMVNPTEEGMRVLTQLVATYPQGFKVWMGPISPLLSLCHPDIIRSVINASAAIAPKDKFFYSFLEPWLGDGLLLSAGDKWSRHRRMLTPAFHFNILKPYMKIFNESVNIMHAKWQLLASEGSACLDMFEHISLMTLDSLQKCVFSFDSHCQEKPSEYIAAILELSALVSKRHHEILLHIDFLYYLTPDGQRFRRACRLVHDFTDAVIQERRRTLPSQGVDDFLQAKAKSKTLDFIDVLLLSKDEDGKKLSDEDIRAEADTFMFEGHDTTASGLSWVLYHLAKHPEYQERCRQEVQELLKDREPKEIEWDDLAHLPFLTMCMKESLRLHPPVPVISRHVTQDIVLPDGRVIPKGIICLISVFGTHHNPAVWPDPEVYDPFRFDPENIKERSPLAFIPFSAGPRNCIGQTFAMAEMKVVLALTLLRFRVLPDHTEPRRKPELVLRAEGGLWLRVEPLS
Kind of series: Metabolism of γ-tocopherol (ω-oxidation products by GC-MS) in HepG2/C3A hepatoblastoma cultures. Conditions: 48 hours; for EC50: 4 hour pre-incubation, 25 μM γ-tocopherol as substrate, read-out: concentration required to inhibit tocopherol hydroxylase activity by 50% (EC50). Format: cell-based. How it is done: as §1
The effect of the triazole compounds were tested in human hepatoblastoma cell culture as described in Example 1, i.e. using 25 μM γ-tocopherol as substrate and 4 hour pre-incubation with the synthetic inhibitors.

Setting [4] is: 500 mg per kg diet with δ-tocopherol 6000 mg per kg diet, versus control, P<0.05.

The record followed here is patent publication US7732617B2, “Tocopherol derivatives and uses thereof” (Brock University, priority 2007, dated 2010).

Take `Cc1c(C)c2c(c(C)c1O)CC[C@@](C)(CCCCCCCCCn1cncn1)O2` [(R)-2-(9-(1H-1,2,4-triazol-1-yl)nonyl)-2,5,7,8-tetramethylchroman-6-ol]: in series [1], the “effect on cell protein” value is on record as “no effect” and the morphology of monolayers result is “normal”. Moreover, the “δ-tocopherol/α-tocopherol ratio in mouse liver” value in series [2] (setting [4]) was “doubling”. The α-tocopherol status result in series [2] (mice, 500 mg per kg diet) is recorded as “no evidence that α-tocopherol status was affected”. In series [3], the EC50 is approximately 1 nM. Moreover, the Tocopherol hydroxylase activity result in series [3] (at compound concentrations above 10 nM, 25 μM γ-tocopherol) is given as “completely abolished”.

On to `Cc1c(C)c2c(c(C)c1O)CC[C@@](C)(CCCCCCCCCn1ccnc1)O2` [(R)-2-(9-(1H-imidazol-1-yl)nonyl)-2,5,7,8-tetramethylchroman-6-ol], for which the “δ-tocopherol/α-tocopherol ratio in bile” value in series [2] (setting [4]) is “tripled”. Further, the EC50 in series [3] fell in the range of 1 to 2 nM.
